Measured values as given in patent publication US10723726B2, “Solid forms of (Z)-4-(5-((3-benzyl-4-oxo-2-thioxothiazolidin-5-ylidene)methyl)furan-2-yl)benzoic acid” (GB006, INC., priority 2015, dated 2020).
Values after ≈ are worked out from the molar mass of the structure shown. “Also recorded” adds a separate entry of the source. Where a name gives a salt, the structure may show the parent alone. Each block holds one molecule with its values, some of them ahead of it.

How the values were obtained:
[1] = Aqueous solubility by equilibration, HPLC analysis; format: physicochemical; conditions: for Aq solub: water, ambient temperature, slurried 4-5 days, corrected for weight of counter-ion
Protocol: An aliquot of the UHQ water test solvent (1 mL) was added to an accurately weighed sample of the LA1 salts and agitated at ambient temperature for a period of 4 days. A sample was withdrawn, filtered through a […], and analyzed by HPLC. HPLC was used to determine aqueous equilibrium solubility at ambient temperature. […] Samples were slurried in water for 4-5 days before analysis.

[2] = Humidity stress at 40° C./75% RH; format: physicochemical; conditions: 5-6 days
Protocol: The larger vials were capped, sealed with Parafilm and placed inside an oven at 40° C. for up to 6 days. Salts were then removed from these conditions and changes observed (e.g. color, deliquescence etc.) before being analyzed for weight change and by XRPD. Samples were examined visually after stressing, form composition confirmed by XRPD analysis and weight change recorded (Table 7).

physchem = assay: physchem
Excerpt: A limited salt screen was previously conducted using five inorganic counter-ions (Na, K, NH4, Ca and Mg).

in vivo = conditions: male, beagle
Protocol: The PO (2 mg/kg) dose solution of micronized LA1 was prepared in 0.1% Tween-80 0.5% (w/v) and methyl cellulose in water.
The objective of the study was to investigate the preclinical pharmacokinetic profile of LA1 (micronized powder) in Beagle dog. To delineate the plasma concentration vs. time curve and characterize the relevant pharmacokinetic parameters to generate data on the PK properties viz., bioavailability, half-life (b1/2), volume of distribution, Cmax, Tmax, AUC and elimination rate constant of LA1 in Beagle dog.
LA1 was a coarse material which was micronized using laboratory scale ball mill. […] The micronized LA1 was recovered, weighed and stored in glass container at room temperature. For intravenous drug administration, LA1 excipient compatibility assay for dosing in dogs were carried out.
In brief, a known amount of LA1 was loaded to a cylindrical capped container made of stainless steel followed by addition of stainless steel balls. The ball mills were rotated on their axis for total of 60 minutes (6 cycles X 10 minutes). The micronized LA1 was recovered, weighed and stored in glass bottle at room temperature.
Test system: Healthy Beagle dog weighing 10-12 kg (age 10 months), males were used for the study. Crossover design was adopted for the experiments wherein 02 dogs were used in the study for oral and intravenous administration. Both the animals were housed stainless steel cage provided with a hopper to hold pellet feed and a separate water hopper. Temperature and humidity was maintained at 22±3° C. and 40-70%, respectively. The illumination was controlled to give a sequence of 12 h light and 12 h dark cycle. All the animals were adapted to the experimental conditions for at least 5 days prior to dosing. All animals were provided with Pedigree™ standard pellet feed, except for 10 to 12 h before treatment and 4 h after the drug administration. Water was provided ad libidum.
Formulation and drug administration: Exactly 90 mg of the test item LA1 (micronized powder) was weighed and transferred to a mortar and briefly triturated with pestle. Small volume of vehicle [0.5% (w/v) Carboxy methyl cellulose with 0.1% Tween-80] in water was then added slowly with continuous trituration until a uniform suspension was obtained. The content was then transferred into the measuring cylinder. The mortar was rinsed till the complete transfer of test item into the measuring cylinder was ensured. The final volume was then made up to 225 mL with vehicle to get a uniform suspension with desired concentration of 0.4 mg/mL. Dosing formulations were given by oral gavage at a dose volume not exceeding 5 mL/kg.
Intravenous drug formulation: Hemolysis assay using dog whole blood was employed to assess the damage of red blood cells for selection of excipient for intravenous dosing. […] Exactly 22.5 mg of the test item (micronized powder) was weighed into a graduated tube. 2.25 mL of DMSO was added drop wise and mixed by vortex. Then, 40.50 mL of Polyethylene glycol 400 (PEG-400) was added in two to three fragments and vortex intermittently. Then 2.25 mL Ethanol was added drop wise and vortex to get clear solution. The formulation was subjected to ultra-sonication for 5 minutes.
Sample collection: Serial method was used for blood sampling. Blood samples were collected as mentioned in the study design section (7). The blood sample (−1.5 mL) was collected from saphenous vein into labeled tubes, containing 2% w/v K2EDTA solution, as an anticoagulant.

adenosine A2A receptor = adenosine A2A receptor (Homo sapiens, UniProt P29274); assay: Adenosine A2A receptor agonist assay
[3] = Solubility estimation by aliquot addition and temperature cycling; format: physicochemical; conditions: for solubility: thermodynamic from solid, 20° C., read-out: Approx. solubility
Protocol: Aliquots of the test solvent were added to an accurately weighed sample (−10 mg) of LA1 at ambient temperature. The aliquot volumes were typically 200-1000 μL. Complete dissolution of the test material was determined by visual inspection. The solubility was estimated from these experiments based on the total solvent used to provide complete dissolution.
First, the samples were heated from 20° C. to within 3° C. of solvent boiling point (or 100° C., whichever was lower) at 0.5° C./minute; then cooled to 20° C. at 0.2° C./minute while stirring at 800 rpm.
From the infrared (IR) transmission data of the sample vials, dissolution and precipitation events were recorded as the point of complete transmission of IR and the onset of turbidity by IR respectively. Selected samples were also agitated on an orbital shaker at 50° C. and visually observed for dissolution.

leukocytes = conditions: mice; cited from earlier work
[4] = mice; cited from earlier work
[5] = after slurrying in water 4-5 days

adenosine A2A receptor, sequence (P29274 whole entry): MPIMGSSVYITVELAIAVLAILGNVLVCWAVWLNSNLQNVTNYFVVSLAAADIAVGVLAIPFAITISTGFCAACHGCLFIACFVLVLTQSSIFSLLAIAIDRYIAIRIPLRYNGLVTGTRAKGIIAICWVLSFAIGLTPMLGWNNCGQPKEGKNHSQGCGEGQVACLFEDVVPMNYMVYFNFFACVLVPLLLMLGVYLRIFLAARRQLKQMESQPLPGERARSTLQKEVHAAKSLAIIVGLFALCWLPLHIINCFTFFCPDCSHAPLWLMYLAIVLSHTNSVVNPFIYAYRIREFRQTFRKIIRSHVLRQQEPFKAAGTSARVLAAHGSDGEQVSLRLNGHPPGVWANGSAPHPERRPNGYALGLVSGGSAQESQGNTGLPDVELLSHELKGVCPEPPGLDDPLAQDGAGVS

- Appearance [1, 5]: Darker red color
- Soln pH [1, 5]: 8
- HPLC purity (%) ([1]; after slurrying in water 4-5 days (chemical stability)): 75.51%
- Aq solub ([1]; listed as choline): 7.052 mg/mL
- Aq solub ([1]; listed as choline salt): 7.1 mg/mL
- Weight gain (%) [2]: 8.9%
Compound: O=C(O)c1ccc(-c2ccc(/C=C3\SC(=S)N(Cc4ccccc4)C3=O)o2)cc1 [LA1 choline salt]
- XRPD after stressing [2]: phase change; also recorded: New pattern (Q)

- solubility (physchem): 0.78 µg/mL (≈ 0.00185 mM)
- Dog Cl (in vivo): 2.1 mL/min/kg
- Dog F % (absolute oral bioavailability) (in vivo): 50%
- AUC (in vivo; dog, po, 2 mg/kg): 6.1 µM·h
- Tmax (in vivo; dog, po, 2 mg/kg): 4 h
- AUC0-t (in vivo; dog, po, 2 mg/kg, AUC0-12): 2570 ng·h/mL
- Cmax (in vivo; dog, po, 2 mg/kg, Cmax (peak concentration)): 685 ng/mL
- half-life (in vivo; dog, po, 2 mg/kg, t1/2 (hr), oral half-life): ~2 h
- efficacy in adenosine A2A receptor agonist assay (adenosine A2A receptor): shown efficacy
- dissolution upon heating ([3]; DMF, 73° C.): 10 mg/mL
- solubility ([3]; aqueous with cosolvent or surfactant or cyclodextrin, DMF:water (1:1)): < 10000 µg/mL
- solubility ([3]; organic solvent or mixture, DMF:MeOH (1:1)): < 10000 µg/mL
- solubility ([3]; organic solvent or mixture, DMF:THF (1:1)): < 7000 µg/mL
- solubility ([3]; organic solvent or mixture, MeOH:ACN:dioxane (1:1:1)): < 10000 µg/mL
- solubility ([3]; organic solvent or mixture, MeOH:acetone (1:1)): < 10000 µg/mL
- solubility ([3]; organic solvent or mixture, THF:Acetone (1:1)): < 10000 µg/mL
- solubility ([3]; organic solvent or mixture, THF:MeOH (1:1)): < 10000 µg/mL
- solubility ([3]; organic solvent or mixture, THF): < 10000 µg/mL
- solubility ([3]; organic solvent or mixture, acetone): < 10000 µg/mL
- solubility ([3]; organic solvent or mixture, acetonitrile): < 10000 µg/mL
- solubility ([3]; organic solvent or mixture, anisole): < 10000 µg/mL
- solubility ([3]; organic solvent or mixture, dichloromethane): < 10000 µg/mL
- solubility ([3]; organic solvent or mixture, dimethylformamide): < 10000 µg/mL
- solubility ([3]; organic solvent or mixture, hexafluoroisopropanol): < 10000 µg/mL
- solubility ([3]; organic solvent or mixture, methanol): < 10000 µg/mL
Compound: O=C(O)c1ccc(-c2ccc(/C=C3\SC(=S)N(Cc4ccccc4)C3=O)o2)cc1 [LA1, (Z)-4-(5-((3-benzyl-4-oxo-2-thioxothiazolidin-5-ylidene)methyl)furan-2-yl)benzoic acid]
- solubility by aliquot addition, overall ([3]; all solvents and solvent mixtures tested): insoluble in all solvents tested; also recorded: poor solubility in all solvents tested
- recruitment of leukocytes during acute peritonitis (leukocytes): reduce recruitment of leukocytes
- renal ischemia/reperfusion injury [4]: reduce renal ischemia/reperfusion injury
